“Also recorded” adds a separate entry of the source.
Tests used:
[1] = system: HeLa cells; test: cells
Procedure: (§1) The inhibition of cell replication by steroid alkaloids is determined by the inhibition of the incorporation of ^3 H thymidine into DNA. Using this technique, it should be possible to monitor any preferential inhibition of uptake of ^3 H thymidine by cancer cells.
(§2) Cells were maintained as monolayers in RPM1-1640 tissue culture media (Grant Island Biological Co) buffered with N-2-hydroxy-ethylpiperazine-N-2-ethanesulphonic acid pH 7.5 and supplemented with 10% heat inactivated fetal calf serum (FCS): (i) a human ovarian cancer cell line (C180-135), (ii) HeLa cells, (iii) human fibroblasts, and (iv) as a cell suspension of lymphoblastoid cells (EBV transformed lymphocytes). Monolayers were trypsinized to form a cell suspension. […] Cell concentration was adjusted to 2×10^5 cells/ml, and 2×10^4 cells were added in replicates of 10 to the wells (1×10^5 /ml well) of HA microtitre plates (Millipore Corp., USA). The cells were preincubated at 37.5° C. for 7 hours prior to the addition of 50 μl of the cytotoxic drug followed by the addition of 50 μl 5 uCi/ml of ^3 H thymidine, in the same tissue culture media 21 hours later. Incubation was continued for a total of 24 hours, which includes the pre-incubation time.
(§3) Appropriate DMSO cytotoxicity studies were also conducted. Solasodine glycosides were supplied as a mixture (BEC), and as separate components, solamargine, solasonine, a mixture of di- and mono-glycosides and the aglycone solasodine. All cytotoxic drugs were further diluted with HIFCS/TCM before testing. 5×10^4 ovarian cancer cells (200 μl/chamber of a chamber of microscope slide (Lab Tek Miles Scientific) were used. Controls received 50 μl HIFCS/TCM and experimental chambers 50 μl of solasodine glycosides (BEC) 1.5-3.8 μM/L after 7 hrs preincubation, and incubated for a further 3 hrs. Similarly, the cells were treated with the aglycone solasodine 19.4-96.8 μM/L. The cells were fixed and examined by the Papanicolaou method.

[2] = system: human fibroblasts; test: cells; conditions: for TR50 (thymidine ratio relative to ovarian cancer cells): FB / OvCa
Procedure: as §1, §2, §3

[3] = system: lymphoblastoid cells (EBV transformed lymphocytes); test: cells; conditions: for TR50 (thymidine ratio relative to ovarian cancer cells): LCL / OvCa
Procedure: as §1, §2, §3

[4] = in vitro; conditions: human, pwm stimulated lymphocytes
Procedure: (§4) This was cultured for 48 hours and pulsed with tritiated thymidine for a further 24 hours. In the inhibition studies, the cell concentration was 8×10^5 /ml.
(§5) All cells were harvested by vacuum filtration by washing in 250 μl of each of phosphate buffered saline, 5% trichloroacetic acid, 1.0M NaCl and 95% ethanol and subjected to β-scintillatian counting. Similarly, peripheral human blood lymphocytes were isolated and cultured 2×10^5 lymphocytes in CO2 1640TCM 10% HIFCS. Lymphocytes were stimulated with 20 μg/ml PHA, Con A or PWM, and cultured for 48 hrs followed by a 24 hr pulse. […] Cell concentrations were 8×10^4 /well total volume 250 μl. The dpm of the experimental replicates were expressed as a percentage of the mean value of the controls, and the mean value of the experimental replicates calculated.

[5] = system: Con A stimulated lymphocytes; test: Inhibition of tritiated thymidine uptake, Con A stimulated lymphocytes; conditions: Con A stimulated lymphocytes
Procedure: as §4, §5

In the case of `C[C@@H]1CC[C@@]2(NC1)O[C@H]1C[C@H]3[C@@H]4CC=C5C[C@@H](O[C@@H]6O[C@H](CO)[C@@H](O[C@@H]7O[C@@H](C)[C@H](O)[C@@H](O)[C@H]7O)[C@H](O)[C@H]6O[C@@H]6O[C@@H](C)[C@H](O)[C@@H](O)[C@H]6O)CC[C@]5(C)[C@H]4CC[C@]3(C)[C@H]1[C@@H]2C` [Solamargine, solamargine], the “TR50 (thymidine ratio relative to ovarian cancer cells)” value ([1]; HeLa / OvCa) is reported as 1.6, the IC50 ([1]; Homo sapiens, HeLa, read-out: LD50 (dose to inhibit 50% tritiated thymidine uptake)) is reported as 2.5 µM and the viability at 11.5 µM ([1]; Homo sapiens, HeLa, read-out: Percentage Cell Survival) is reported as 2.6 ± 0.5%. The “TR50 (thymidine ratio relative to ovarian cancer cells)” value ([2]; listed as Solam) was 2.3, the “TR50 (thymidine ratio relative to ovarian cancer cells)” value ([2]; listed as solamargine) was “greater than 2” and the IC50 ([2]; Homo sapiens, Fibroblast, read-out: LD50 (dose to inhibit 50% tritiated thymidine uptake)) was 3.65 µM. The viability at 11.5 µM ([2]; Homo sapiens, Fibroblast, read-out: Percentage Cell Survival) was 23 ± 1.7%, the viability at 11.5 µM ([3]; Homo sapiens, Lymphoblastoid cell, read-out: Percentage Cell Survival) was 35 ± 4.2% and the “TR50 (thymidine ratio relative to ovarian cancer cells)” value ([3]; listed as Solam) was 2.5. The “TR50 (thymidine ratio relative to ovarian cancer cells)” value ([3]; listed as solamargine) was “greater than 2”, the IC50 ([3]; human gammaherpesvirus 4, LCL, read-out: LD50 (dose to inhibit 50% tritiated thymidine uptake)) was 3.95 µM and the viability at 11.5 µM [4] was 93 ± 9.4%. For the same molecule, the “cytotoxicity (words)” value [5] was “limited effect; also recorded: limited cytotoxicity”.

— patent US5958770A, “Glycoalkaloids” (priority 1990, dated 1999)
